Results on three molecules are retold here after PMC7982320 (Pharmacology Research & Perspectives, 2021).

The conditions of data set [1]: healthy male subjects, single oral dose of 60 mg 14C‐DFZ; cited from earlier work.
The conditions of data set [2]: cited from earlier work.
Another data set relates to CYP1A2. The data set is described as follows: in vitro. The format is in vitro ADME, human. Conditions: human.
The subject of a further data set is CYP2B6. The data set is described as follows: in vitro. It is filed as in vitro ADME, human. Conditions: human, 10 µM.
A further data set concerns CYP3A4. The data set is described as follows: in vitro. Conditions: human.
Where [3] appears, read: CYP1A2 enzyme activity fold induction, donor one.
Setting [4] is: CYP1A2 enzyme activity fold induction, donor three.
[5] abbreviates: CYP1A2 enzyme activity fold induction, donor two.
Setting [6] is: CYP1A2 mRNA fold induction, donor one.
The mark [7] stands for this setting: CYP1A2 mRNA fold induction, donor three.
[8] abbreviates: CYP1A2 mRNA fold induction, donor two.

For `CC1=N[C@]2(C(=O)CO)[C@@H](C[C@H]3[C@@H]4CCC5=CC(=O)C=C[C@]5(C)[C@H]4[C@@H](O)C[C@@]32C)O1` [21‐desDFZ, 21‐desacetyl deflazacort], the “share of 0–24 h plasma levels of total radioactivity” value in data set [1] is 33%. Further, the “protein binding in human plasma” value in data set [2] is given as “about 40%”.
One may read the fold induction as the signal under treatment as a multiple of the control signal. On to `COc1c(N2CCNC(C)C2)c(F)cc2c(=O)c(C(=O)O)cn(C3CC3)c12` (centres unmarked) [Gatifloxacin, reference compound], for which the fold induction at 48 h, 10 µM worked out at 0.744 in the data set on CYP1A2 (setting [3]); 0.996 in the data set with CYP1A2 (setting [4]); 0.805 in the data set on CYP1A2 (setting [5]); 0.941 in the data set with CYP1A2 (setting [6]); 0.898 with CYP1A2 (setting [7]); 1.12 in the data set on CYP1A2 (setting [8]). Moreover, the fold induction at 48 h, 10 µM with CYP2B6 (CYP2B6 enzyme activity fold induction, donor one) worked out at 0.719; in the data set with CYP2B6 (CYP2B6 enzyme activity fold induction, donor three) it was 0.875; with CYP2B6 (CYP2B6 enzyme activity fold induction, donor two), 1.05; in the data set with CYP2B6 (CYP2B6 mRNA fold induction, donor one), 0.965; with CYP2B6 (CYP2B6 mRNA fold induction, donor three), 0.989; in the data set with CYP2B6 (CYP2B6 mRNA fold induction, donor two), 0.685. Also, the fold induction at 48 h, 10 µM with CYP3A4 (CYP3A4 enzyme activity fold induction, donor one) was determined as 0.881; in the data set on CYP3A4 (CYP3A4 enzyme activity fold induction, donor three) it was 1.44; in the data set on CYP3A4 (CYP3A4 enzyme activity fold induction, donor two), 0.861; with CYP3A4 (CYP3A4 mRNA fold induction, donor one), 0.612; in the data set on CYP3A4 (CYP3A4 mRNA fold induction, donor three), 1.18; in the data set on CYP3A4 (CYP3A4 mRNA fold induction, donor two) it was 0.591.
Regarding `COc1ccc2[nH]c([S+]([O-])Cc3ncc(C)c(OC)c3C)nc2c1` (centres unmarked) [Omeprazole, reference compound], the fold induction at 48 h, 100 µM in the data set with CYP1A2 (setting [3]) was determined as 3.55; with CYP1A2 (setting [4]), 8.36; with CYP1A2 (setting [5]) it was 5.48; with CYP1A2 (setting [6]), 39.6; with CYP1A2 (setting [7]), 40.5; in the data set with CYP1A2 (setting [8]), 34.8.
